# In patent US20220151962A1, “NOVEL INHIBITORS OF HISTONE DEACETYLASE 10” (Deutsches Krebsforschungszentrum, priority 2019, published 2022):
# pIC50: −log10 of the molar value. Several values for one entry are separate records, joined by “and”; a condition that tells them apart may be missing. Equal entries are not always repeated. Where two headings read alike, the source gives them in different places.
# How the values were obtained:
# [1] = target: T1, TwinStrep-GST-HDAC10 (Homo sapiens, UniProt Q969S8); test: HDAC10 TR-FRET assay (Tubastatin-AF647-Tracer displacement); type: binding; settings: for IC50: TR-FRET, 60 min at rt, read-out: pIC50 HDAC10 FRET (converted)
# T1 construct: made in house; host or cells: Sf21 insect cells (baculovirus, pFastBac1)
# T1 sequence (Q969S8 1-669): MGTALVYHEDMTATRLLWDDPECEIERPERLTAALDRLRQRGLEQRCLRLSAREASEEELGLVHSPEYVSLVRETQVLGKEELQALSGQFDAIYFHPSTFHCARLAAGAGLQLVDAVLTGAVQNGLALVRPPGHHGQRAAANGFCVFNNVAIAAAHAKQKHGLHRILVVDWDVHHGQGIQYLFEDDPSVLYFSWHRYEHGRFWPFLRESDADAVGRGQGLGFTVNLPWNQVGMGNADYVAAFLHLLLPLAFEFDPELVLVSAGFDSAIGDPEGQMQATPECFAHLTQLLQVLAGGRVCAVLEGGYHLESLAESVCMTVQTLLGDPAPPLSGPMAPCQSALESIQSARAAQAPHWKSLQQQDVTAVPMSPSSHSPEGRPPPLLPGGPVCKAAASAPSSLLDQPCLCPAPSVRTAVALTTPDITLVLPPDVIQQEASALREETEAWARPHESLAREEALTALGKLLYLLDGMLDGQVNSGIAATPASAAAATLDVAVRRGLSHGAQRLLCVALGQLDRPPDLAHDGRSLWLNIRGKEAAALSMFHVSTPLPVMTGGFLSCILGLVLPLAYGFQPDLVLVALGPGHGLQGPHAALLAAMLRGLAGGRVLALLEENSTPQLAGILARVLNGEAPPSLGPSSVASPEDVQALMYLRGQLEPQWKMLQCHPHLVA
# [2] = target: T2, HDAC3/NcoR2 complex (Homo sapiens, UniProt O15379); test: HDAC-Glo I/II assay, HDAC3/NcoR2 complex; type: biochemical; settings: recombinant human HDAC3/NcoR2 complex, read-out: pIC50 HDAC3 Glo (converted)
# T2 construct: purchased BPS Bioscience 50003
# [3] = target: T3, HDAC6 (2nd catalytic domain)-nanoluciferase fusion in HeLa cells (Homo sapiens, UniProt Q9UBN7); test: BRET intracellular target engagement assay, HDAC6
# T3 sequence (Q9UBN7 482-800 limits assumed): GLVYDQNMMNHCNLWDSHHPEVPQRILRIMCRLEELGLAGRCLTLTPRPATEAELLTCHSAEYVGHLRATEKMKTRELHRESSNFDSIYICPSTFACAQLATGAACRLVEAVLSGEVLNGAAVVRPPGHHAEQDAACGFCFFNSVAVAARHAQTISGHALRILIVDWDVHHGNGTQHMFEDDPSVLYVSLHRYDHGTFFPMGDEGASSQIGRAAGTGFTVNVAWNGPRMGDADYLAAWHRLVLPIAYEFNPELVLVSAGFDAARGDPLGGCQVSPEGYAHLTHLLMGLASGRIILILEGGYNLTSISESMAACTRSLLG
# [4] = target: T4, HDAC6 (Homo sapiens, UniProt Q9UBN7); test: HDAC-Glo I/II assay, HDAC6; type: biochemical; settings: recombinant human HDAC6, HDAC-Glo; read-out: pIC50 HDAC6 Glo (converted)
# T4 construct: purchased BPS Bioscience 50006
# T4 sequence (Q9UBN7 1-1215): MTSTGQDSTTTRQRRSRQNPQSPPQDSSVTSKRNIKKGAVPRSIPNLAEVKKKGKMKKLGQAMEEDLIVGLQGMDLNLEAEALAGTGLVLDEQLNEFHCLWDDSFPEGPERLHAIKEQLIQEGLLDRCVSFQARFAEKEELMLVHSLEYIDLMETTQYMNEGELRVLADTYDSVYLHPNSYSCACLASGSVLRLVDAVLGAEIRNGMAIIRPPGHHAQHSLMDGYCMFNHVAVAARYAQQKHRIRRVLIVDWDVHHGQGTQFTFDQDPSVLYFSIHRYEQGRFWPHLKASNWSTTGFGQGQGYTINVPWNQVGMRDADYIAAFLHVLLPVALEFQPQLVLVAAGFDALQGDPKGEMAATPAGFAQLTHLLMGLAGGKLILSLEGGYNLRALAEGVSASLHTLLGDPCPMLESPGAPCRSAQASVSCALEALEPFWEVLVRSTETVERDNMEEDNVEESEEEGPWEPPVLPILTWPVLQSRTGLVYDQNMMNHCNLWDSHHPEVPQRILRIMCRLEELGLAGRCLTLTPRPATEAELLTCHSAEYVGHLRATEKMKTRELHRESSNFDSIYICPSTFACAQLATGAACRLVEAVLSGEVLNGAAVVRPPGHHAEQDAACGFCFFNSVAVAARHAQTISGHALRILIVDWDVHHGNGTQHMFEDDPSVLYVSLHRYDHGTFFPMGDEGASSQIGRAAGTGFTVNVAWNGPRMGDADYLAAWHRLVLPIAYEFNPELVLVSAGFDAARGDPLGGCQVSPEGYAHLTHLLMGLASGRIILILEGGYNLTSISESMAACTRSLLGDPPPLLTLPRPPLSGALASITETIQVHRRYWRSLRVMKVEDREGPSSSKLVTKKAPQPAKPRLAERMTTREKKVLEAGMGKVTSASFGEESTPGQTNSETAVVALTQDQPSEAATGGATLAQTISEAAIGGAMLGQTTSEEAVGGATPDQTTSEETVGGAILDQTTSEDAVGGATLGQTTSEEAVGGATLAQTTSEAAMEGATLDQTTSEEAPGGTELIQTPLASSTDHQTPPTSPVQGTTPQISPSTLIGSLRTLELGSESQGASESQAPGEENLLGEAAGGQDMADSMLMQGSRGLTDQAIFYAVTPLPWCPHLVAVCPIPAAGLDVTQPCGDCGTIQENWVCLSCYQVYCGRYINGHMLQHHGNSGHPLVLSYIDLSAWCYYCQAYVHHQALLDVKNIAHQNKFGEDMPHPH
# [5] = target: T5, HDAC8 (Homo sapiens, UniProt Q9BY41); test: HDAC-Glo I/II assay, HDAC8; type: biochemical; design: purchased BPS Bioscience 50008; settings: recombinant human HDAC8, HDAC-Glo; read-out: pIC50 HDAC8 Glo (converted)
# T5 sequence (Q9BY41 1-377): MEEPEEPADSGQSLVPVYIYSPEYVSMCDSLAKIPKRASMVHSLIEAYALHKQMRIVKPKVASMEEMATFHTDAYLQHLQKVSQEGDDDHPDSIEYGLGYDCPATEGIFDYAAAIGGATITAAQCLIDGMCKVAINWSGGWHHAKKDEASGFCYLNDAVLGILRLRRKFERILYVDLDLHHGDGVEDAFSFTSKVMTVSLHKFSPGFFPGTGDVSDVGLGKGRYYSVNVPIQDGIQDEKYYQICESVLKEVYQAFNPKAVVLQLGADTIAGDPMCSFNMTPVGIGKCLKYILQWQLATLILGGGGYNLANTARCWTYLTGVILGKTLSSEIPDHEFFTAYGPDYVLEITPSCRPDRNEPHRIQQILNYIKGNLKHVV
# [6] = target: T6, HDAC1 (Homo sapiens, UniProt Q13547); test: HDAC-Glo I/II assay, HDAC1; type: biochemical; settings: recombinant human HDAC1, HDAC-Glo; read-out: pIC50 HDAC1 Glo (converted)
# T6 construct: purchased BPS Bioscience 50051
# [7] = target: T7, HDAC10-nanoluciferase fusion in HeLa cells (Homo sapiens, UniProt Q969S8); test: BRET intracellular target engagement assay, HDAC10; settings: for HDAC10/6 fold selectivity (BRET): HDAC10 over HDAC6, from BRET
# T7 sequence (Q969S8 1-669): T1 sequence (Q969S8 1-669)
# [8] = target: T8, HDAC2 (Homo sapiens, UniProt Q92769); test: HDAC-Glo I/II assay, HDAC2; type: biochemical; settings: recombinant human HDAC2, HDAC-Glo; read-out: pIC50 HDAC2 Glo (converted)
# T8 construct: purchased BPS Bioscience 50002
# [9] = target: T6, HDAC1; test: HDAC1 (ZMAL) fluorogenic activity assay; type: biochemical; settings: read-out: HDAC1 (ZMAL) percent enzyme inhibition
# [10] = target: T4, HDAC6; test: HDAC6 (ZMAL) fluorogenic activity assay; type: biochemical; settings: read-out: HDAC6 (ZMAL) percent enzyme inhibition
# [11] = target: T5, HDAC8; test: HDAC8 (FDL) Fluor de Lys assay; type: biochemical; design: obtained from C; Romier (academic laboratory, not a vendor); settings: read-out: HDAC8 (FDL) percent enzyme inhibition
# [12] = target: T9, zebrafish HDAC10 (Danio rerio, UniProt F1QCV2); test: Zebrafish HDAC10 assay (zHDAC10), Ac-spermidine-AMC substrate; type: biochemical; settings: read-out: zHDAC10 percent enzyme inhibition
# T9 sequence (F1QCV2 1-675): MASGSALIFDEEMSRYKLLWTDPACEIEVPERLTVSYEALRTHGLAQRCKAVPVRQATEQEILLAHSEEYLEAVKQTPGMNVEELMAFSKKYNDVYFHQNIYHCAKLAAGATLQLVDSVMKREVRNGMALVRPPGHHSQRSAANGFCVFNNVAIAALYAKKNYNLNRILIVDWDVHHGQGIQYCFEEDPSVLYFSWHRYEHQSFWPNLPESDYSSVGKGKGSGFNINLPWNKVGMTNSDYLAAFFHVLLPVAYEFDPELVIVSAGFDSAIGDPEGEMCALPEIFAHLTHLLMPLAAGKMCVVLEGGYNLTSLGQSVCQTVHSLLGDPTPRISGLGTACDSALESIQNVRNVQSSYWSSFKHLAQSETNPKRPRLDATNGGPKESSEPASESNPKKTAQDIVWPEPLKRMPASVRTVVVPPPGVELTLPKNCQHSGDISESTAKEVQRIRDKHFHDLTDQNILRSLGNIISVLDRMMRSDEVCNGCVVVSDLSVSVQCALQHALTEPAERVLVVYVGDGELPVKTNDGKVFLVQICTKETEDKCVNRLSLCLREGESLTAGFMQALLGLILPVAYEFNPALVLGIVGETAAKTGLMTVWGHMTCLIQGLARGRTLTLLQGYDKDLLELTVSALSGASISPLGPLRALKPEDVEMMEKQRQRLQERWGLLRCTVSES
# T2 sequence (O15379 whole entry): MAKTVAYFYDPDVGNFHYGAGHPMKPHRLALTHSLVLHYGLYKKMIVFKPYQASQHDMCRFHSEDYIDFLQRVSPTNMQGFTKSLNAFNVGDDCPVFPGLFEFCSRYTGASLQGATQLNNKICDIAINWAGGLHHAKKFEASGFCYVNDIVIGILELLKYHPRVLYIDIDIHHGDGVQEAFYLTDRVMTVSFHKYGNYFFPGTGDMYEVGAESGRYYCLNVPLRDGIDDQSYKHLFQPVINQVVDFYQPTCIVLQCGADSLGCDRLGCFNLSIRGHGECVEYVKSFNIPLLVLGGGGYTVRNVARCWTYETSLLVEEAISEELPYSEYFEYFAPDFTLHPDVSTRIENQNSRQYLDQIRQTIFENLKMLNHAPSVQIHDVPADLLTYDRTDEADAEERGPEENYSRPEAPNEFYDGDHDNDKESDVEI
# T2 sequence (Q9Y618 395-489 partner limits assumed): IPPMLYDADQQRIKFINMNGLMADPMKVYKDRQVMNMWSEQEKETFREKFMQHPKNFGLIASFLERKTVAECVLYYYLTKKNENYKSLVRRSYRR
# T8 sequence (Q92769 whole entry): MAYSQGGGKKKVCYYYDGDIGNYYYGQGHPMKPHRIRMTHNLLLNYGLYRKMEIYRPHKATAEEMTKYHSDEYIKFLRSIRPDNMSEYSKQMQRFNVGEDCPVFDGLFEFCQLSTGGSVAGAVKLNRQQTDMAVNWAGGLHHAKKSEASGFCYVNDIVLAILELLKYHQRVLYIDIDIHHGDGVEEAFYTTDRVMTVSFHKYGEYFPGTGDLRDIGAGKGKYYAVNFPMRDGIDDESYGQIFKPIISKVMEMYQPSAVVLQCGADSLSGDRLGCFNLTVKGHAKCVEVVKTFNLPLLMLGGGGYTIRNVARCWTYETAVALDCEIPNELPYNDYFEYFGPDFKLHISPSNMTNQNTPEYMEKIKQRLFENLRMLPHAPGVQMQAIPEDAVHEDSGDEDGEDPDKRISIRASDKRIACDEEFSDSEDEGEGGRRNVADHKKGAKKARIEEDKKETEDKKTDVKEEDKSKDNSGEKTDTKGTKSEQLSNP
# T6 sequence (Q13547 whole entry): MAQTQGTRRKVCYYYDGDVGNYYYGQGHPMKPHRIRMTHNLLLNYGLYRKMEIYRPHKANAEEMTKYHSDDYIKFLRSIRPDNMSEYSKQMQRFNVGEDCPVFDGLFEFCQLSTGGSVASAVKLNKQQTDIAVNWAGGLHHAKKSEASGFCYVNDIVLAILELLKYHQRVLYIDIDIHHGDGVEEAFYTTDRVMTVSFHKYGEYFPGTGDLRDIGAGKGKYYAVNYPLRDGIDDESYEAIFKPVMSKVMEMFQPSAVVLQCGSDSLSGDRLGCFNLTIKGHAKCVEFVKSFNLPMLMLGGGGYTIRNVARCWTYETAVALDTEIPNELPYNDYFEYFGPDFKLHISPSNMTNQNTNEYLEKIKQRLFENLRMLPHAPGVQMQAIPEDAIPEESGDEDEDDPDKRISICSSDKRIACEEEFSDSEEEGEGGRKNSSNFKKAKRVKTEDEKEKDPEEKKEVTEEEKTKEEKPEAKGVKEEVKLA
SMILES,IC50 [1],IC50 [2],pIC50 [3],IC50 [4],IC50 [5],IC50 [6],pIC50 [7],HDAC10/6 fold selectivity (BRET) [7],IC50 [8],inhibition at 1 µM [9],inhibition at 10 µM [9],inhibition at 1 µM [10],inhibition at 10 µM [10],inhibition at 1 µM [11],inhibition at 10 µM [11],inhibition at 0.1 µM [12],inhibition at 1 µM [12],inhibition at 10 µM [12],"pIC50 ([1]; two separate measurements, each made in triplicate, read-out: HDAC10 FRET IC50)"
"CN(CCCC(=O)NO)CCNC(=O)c1ccc(/C(N)=N/O)cc1 [DKFZ-750, N-(2-((4-(Hydroxyamino)-4-oxobutyl)(methyl)amino)ethyl)-4-(M-hydroxycarbamimidoyl)benzamide]",0.02 µM,> 100 µM,< 4.40,6.31 µM,~25.1 µM,15.8 µM,5.70,>21 fold,> 100 µM,–,–,–,–,–,–,–,–,–,–
"CN(CCCC(=O)NO)CCNC(=O)c1cccc2cn[nH]c12 [DKFZ-757, N-(2-((4-(Hydroxyamino)-4-oxobutyl)(methyl)amino)ethyl)-1H-indazole-7-carboxamide]",0.00794 µM,> 100 µM,4.60,6.31 µM,~25.1 µM,10 µM,7.20,423 fold,> 100 µM,–,–,–,–,–,–,–,–,–,–
"CN(CCCC(=O)NO)CCCC(=O)Nc1ccccc1 [DKFZ-775, N-Hydroxy-4-(methyl(4-oxo-4-(phenylamino)butyl)amino)butanamide]",–,> 100 µM,< 4.40,12.6 µM,25.1 µM,50.1 µM,–,–,–,–,–,–,–,–,–,–,–,–,–
"O=C(NO)C1CCN(CCc2cccc(Br)c2)CC1 [DH71, 1-(3-Bromophenethyl)-N-hydroxypiperidine-4-carboxamide]",–,–,–,–,–,–,6.41,–,–,-5%,6%,-2%,28%,27%,70%,0%,10%,61%,–
"CN(CCCC(=O)NO)CCNC(=O)c1c2ccccc2cc2ccccc12 [DKFZ-771, N-(2-((4-(Hydroxyamino)-4-oxobutyl)(methyl)amino)ethyl)anthracene-9-carboxamide]",–,–,5.40,0.631 µM,0.794 µM,2 µM,–,–,3.98 µM,–,–,–,–,–,–,–,–,–,–
"O=C(NO)C1CCN(CCc2ccc(Br)cc2)CC1 [DH67, 1-(4-Bromophenethyl)-N-hydroxypiperidine-4-carboxamide]",–,–,–,–,–,–,6.43,–,–,7%,6%,-4%,18%,33%,69%,7%,40%,67%,–
"O=C(NO)C1CCN(Cc2ccc(-c3ccccc3)cc2)CC1 [DH35, 1-([1,1′-Biphenyl]-4-ylmethyl)-N-hydroxypiperidine-4-carboxamide]",–,–,–,–,–,–,–,–,–,5%,35%,11%,57%,37%,70%,7%,24%,69%,5.75 and 5.59
